Test [1] has as its system MDA-MB-453. The experiment in a line: drug sensitivity score (DSS), single agent (DSS (weighted AUC score)); higher = more sensitive (stronger viability decrease); extreme values may be limits of the assay. The following applies: BLU9931 0 nM; 72 h. The gist of the method:
(§1)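 Cells of the MDA-MB-453 line (2000 per well) were added in medium, with or without 100 nM final FGFR4 inhibitor, to 384-well plates predispensed with FIMM Oncology set compounds at five 10-fold dilutions covering a 10,000-fold range. After 72 h at 37 °C, 5% CO2, CellTiterGlo 2.0 read cellular ATP. Percent viability came from per-plate normalisation to control wells, and the drug sensitivity score was defined as a weighted area under a four-parameter logistic fit.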

The test system of test [2] is MDA-MB-453. In words: drug sensitivity score (DSS), in combination with BLU9931 (DSS (weighted AUC score)); higher = more sensitive (stronger viability decrease); extreme values may be limits of the assay. The following applies: BLU9931 100 nM; 72 h. The gist of the method:
as §1

Take `CC(C)C[C@H](NC(=O)[C@@H](COC(C)(C)C)NC(=O)[C@H](Cc1ccc(O)cc1)NC(=O)[C@H](CO)NC(=O)[C@H](Cc1c[nH]c2ccccc12)NC(=O)[C@H](Cc1cnc[nH]1)NC(=O)[C@@H]1CCC(=O)N1)C(=O)N[C@@H](CCCNC(=N)N)C(=O)N1CCC[C@H]1C(=O)NNC(N)=O` [Goserelin]: the drug sensitivity score in the test with MDA-MB-453 [1] and with MDA-MB-453 [2] was 0 throughout.
Turning to `O=S(=O)(c1cccc2c(O)nccc12)N1CCCNCC1` [Hydroxyfasudil], the drug sensitivity score in the test on MDA-MB-453 [1] stood at 0; in the test with MDA-MB-453 [2], 0.2.
Consider `NC(=O)NO` [Hydroxyurea], for which the drug sensitivity score amounted to 2.3 with MDA-MB-453 [1] and 1.6 in the test on MDA-MB-453 [2].
The matching figures for `COc1cc2c(cc1-c1c(C)noc1C)ncc1[nH]c(=O)n([C@H](C)c3ccccn3)c12` [I-BET151]: 11.5 and 11.4.
Consider `O=C(O)c1ccc(O)c2ncccc12` [IOX-1], for which the drug sensitivity score in the test with MDA-MB-453 [1] was 1.6; with MDA-MB-453 [2], 3.6.
Turning to `O=C(O)CNC(=O)c1c(O)c2ccccc2n(Cc2ccccc2)c1=O` [IOX-2], the drug sensitivity score in the test on MDA-MB-453 [1] and with MDA-MB-453 [2] was 0 in each case.
On to `C=CC(=O)N1CCC[C@@H](n2nc(-c3ccc(Oc4ccccc4)cc3)c3c(N)ncnc32)C1` [Ibrutinib], for which the drug sensitivity score in the test on MDA-MB-453 [1] was found to be 14.5; in the test with MDA-MB-453 [2] it was 15.8.
In the case of `C#Cc1cccc(Nc2ncnc3cc4c(cc23)OCCOCCOCCO4)c1` [Icotinib], the drug sensitivity score with MDA-MB-453 [1] is 1.8; in the test with MDA-MB-453 [2], 1.9.
As to `CC(=O)[C@]1(O)Cc2c(O)c3c(c(O)c2[C@@H](O[C@H]2C[C@H](N)[C@H](O)[C@H](C)O2)C1)C(=O)c1ccccc1C3=O` [Idarubicin], the figures for the drug sensitivity score in the test on MDA-MB-453 [1] and with MDA-MB-453 [2] were 5.9 and 6.4, respectively.
For `COc1cc(C(=O)O)ccc1NC(=O)[C@@H]1N[C@@H](CC(C)(C)C)[C@](C#N)(c2ccc(Cl)cc2F)[C@H]1c1cccc(Cl)c1F` [Idasanutlin], the drug sensitivity score came out at 1.1 in the test on MDA-MB-453 [1] and 0 with MDA-MB-453 [2].
For the compound `CC[C@H](Nc1ncnc2[nH]cnc12)c1nc2cccc(F)c2c(=O)n1-c1ccccc1` [Idelalisib], the drug sensitivity score stood at 1.7 in the test with MDA-MB-453 [1] and 2 in the test with MDA-MB-453 [2].
In the case of `Cc1ccc(NC(=O)c2ccc(CN3CCN(C)CC3)cc2)cc1Nc1nccc(-c2cccnc2)n1` [Imatinib], the drug sensitivity score in the test on MDA-MB-453 [1] came to 0.9; with MDA-MB-453 [2] it was 0.1.
As for `CC(C)Cn1cnc2c(N)nc3ccccc3c21` [Imiquimod], the drug sensitivity score in the test with MDA-MB-453 [1] and in the test on MDA-MB-453 [2] was 0 throughout.
Regarding `O=C(Nc1ccncc1)C(=O)c1cn(Cc2ccc(Cl)cc2)c2ccccc12` [Indibulin], the drug sensitivity score came out at 9.1 with MDA-MB-453 [1] and 5.3 in the test on MDA-MB-453 [2].
The matching figures for `CCN1CCN(c2ccc(Nc3cc(N(C)C(=O)Nc4c(Cl)c(OC)cc(OC)c4Cl)ncn3)cc2)CC1` [Infigratinib]: 0 and 0.
Take `CC(C)NC[C@@H](C(=O)N1CCN(c2ncnc3c2[C@H](C)C[C@H]3O)CC1)c1ccc(Cl)cc1` [Ipatasertib]: the values for the drug sensitivity score in the test with MDA-MB-453 [1] and in the test on MDA-MB-453 [2] were 11 and 12, respectively.
On to `CCC(C)n1ncn(-c2ccc(N3CCN(c4ccc(OCC5COC(Cn6cncn6)(c6ccc(Cl)cc6Cl)O5)cc4)CC3)cc2)c1=O` (stereo not drawn) [Itraconazole], for which the drug sensitivity score was found to be 2.9 in the test on MDA-MB-453 [1] and 1.5 with MDA-MB-453 [2].
As to `N#Cc1ccnc(N2C(=O)CC[C@H]2C(=O)N(c2cncc(F)c2)[C@H](C(=O)NC2CC(F)(F)C2)c2ccccc2Cl)c1` [Ivosidenib], the drug sensitivity score with MDA-MB-453 [1] and in the test on MDA-MB-453 [2] was 0 throughout.
For `C/C(=C\c1csc(C)n1)[C@@H]1C[C@@H]2O[C@]2(C)CCC[C@H](C)[C@H](O)[C@@H](C)C(=O)C(C)(C)[C@@H](O)CC(=O)N1` [Ixabepilone], the values for the drug sensitivity score with MDA-MB-453 [1] and in the test on MDA-MB-453 [2] were 5.6 and 4.1, respectively.

The values above are taken from the supplement of paper PMC7224384.
